Type in all cases: functional
Test [1] relates to Rattus norvegicus. Briefly: Weight loss of rat over the 6-h experimental period when a dose of 1 mg/kg (2.3 uMl) was administered.
Test [2] deals with Rattus norvegicus. Briefly: Weight loss of rat over the 6-h experimental period when a dose of 25 mg/kg (57.8 administered.
In test [3] the test system is Rattus norvegicus. The experiment in a line: Stool output of rat over the 6-h collection period when a dose of 0 mg/kg (0 administered.
The subject of test [4] is Rattus norvegicus. The experiment in a line: Percent reduction was determined by using the ratio of mean of treated animal to that of control animal at a dose of 1 mg/kg.
The test system of test [5] is Rattus norvegicus. The experiment in a line: Weight loss of rat over the 6-h experimental period when a dose of 0 mg/kg (0 administered.
The test system of test [6] is Rattus norvegicus. Briefly: Weight loss of rat over the 6-h experimental period when a dose of 5 mg/kg (11.6 administered.
The test system of test [7] is Rattus norvegicus. Briefly: Percent reduction was determined by using the ratio of mean of treated animal to that of control animal at a dose of 25 mg/kg.
Test [8] has as its system Rattus norvegicus. The experiment in a line: Percent reduction was determined by using the ratio of mean of treated animal to that of control animal at a dose of 5 mg/kg.
For test [9], the system named is Rattus norvegicus. The experiment in a line: Stool output of rat over the 6-h collection period when a dose of 1 mg/kg (2.3 administered.
Test [10] has as its system Rattus norvegicus. The experiment in a line: Stool output of rat over the 6-h collection period when a dose of 25 mg/kg (57.8 administered.
Test [11] deals with Rattus norvegicus. The experiment in a line: Stool output of rat over the 6-h collection period when a dose of 5 mg/kg (11.6 administered.
Test [12] relates to Rattus norvegicus. The experiment in a line: Stool output of rat over the 6-h collection period when a dose of 5.9 mg/kg (11.6 administered.
In test [13] the test system is Rattus norvegicus. The experiment in a line: Weight loss of rat over the 6-h experimental period when a dose of 94 mg/kg (232.5 uM) was given orally. Particulars: route oral.
Test [14] has as its system Rattus norvegicus. Briefly: Stool output of rat over the 6-h collection period when a dose of 47 mg/kg (116.25 uM) was given orally. The settings on record: route oral.
Test [15] relates to Rattus norvegicus. The experiment in a line: Stool output of rat over the 6-h collection period when a dose of 0 mg/kg (0 uM) was given orally. Particulars: route oral.
Test [16] deals with Rattus norvegicus. The experiment in a line: Weight loss of rat over the 6-h experimental period when a dose of 47 mg/kg (116.25 uM) was given orally. Particulars: route oral.
For test [17], the system named is Rattus norvegicus. The experiment in a line: Weight loss of rat over the 6-h experimental period when a dose of 23.5 mg/kg (58.13 uM) was given orally. Particulars: route oral.
For test [18], the system named is Rattus norvegicus. The experiment in a line: Stool output of rat over the 6-h collection period when a dose of 23.5 mg/kg (58.13 uM) was given orally. Particulars: route oral.
The subject of test [19] is Rattus norvegicus. The experiment in a line: Stool output of rat over the 6-h collection period when a dose of 94 mg/kg (232.5 uM) was given orally. Particulars: route oral.
Test [20] has as its system Rattus norvegicus. The experiment in a line: Weight loss of rat over the 6-h experimental period when a dose of 5.9 mg/kg (11.6 administered.
Test [21] deals with Rattus norvegicus. Briefly: Weight loss of rat over the 6-h experimental period when a dose of 0 mg/kg (0 uM) was given orally. Particulars: route oral.
Test [22] concerns Rattus norvegicus. The experiment in a line: Stool output of rat over the 6-h collection period when a dose of 15 mg/kg (47.6 administered.
In test [23] the test system is Rattus norvegicus. The experiment in a line: Weight loss of rat over the 6-h experimental period when a dose of 15 mg/kg (47.6 administered.
For test [24], the system named is Rattus norvegicus. The experiment in a line: Stool output of rat over the 6-h collection period when a dose of 4.6 mg/kg (11.6 administered.
The subject of test [25] is Rattus norvegicus. The experiment in a line: Weight loss of rat over the 6-h experimental period when a dose of 4.6 mg/kg (11.6 administered.
The test system of test [26] is Rattus norvegicus. Briefly: Percent reduction was determined by using the ratio of mean of treated animal to that of control animal at a dose of 10.7 mg/kg.
Test [27] has as its system Rattus norvegicus. Briefly: Weight loss of rat over the 6-h experimental period when a dose of 10.7 mg/kg (23.2 administered.
Test [28] has as its system Rattus norvegicus. Briefly: Stool output of rat over the 6-h collection period when a dose of 10.7 mg/kg (23.2 administered.
The subject of test [29] is Rattus norvegicus. Briefly: Weight loss of rat over the 6-h experimental period when a dose of 5.3 mg/kg (11.6 administered.
For test [30], the system named is Rattus norvegicus. The experiment in a line: Stool output of rat over the 6-h collection period when a dose of 5.3 mg/kg (11.6 administered.
Test [31] relates to Rattus norvegicus. The experiment in a line: Percent reduction was determined by using the ratio of mean of treated animal to that of control animal at a dose of 5.3 mg/kg.
For test [32], the system named is Rattus norvegicus. Briefly: Stool output of rat over the 6-h collection period when a dose of 30.4 mg/kg (57.8 administered.
Test [33] concerns Rattus norvegicus. The experiment in a line: Weight loss of rat over the 6-h experimental period when a dose of 30.4 mg/kg (57.8 administered.
Test [34] relates to Rattus norvegicus. The experiment in a line: Stool output of rat over the 6-h collection period when a dose of 1.22 mg/kg (2.3 administered.
The subject of test [35] is Rattus norvegicus. Briefly: Stool output of rat over the 6-h collection period when a dose of 6.11 mg/kg (11.6 administered.
The test system of test [36] is Rattus norvegicus. Briefly: Weight loss of rat over the 6-h experimental period when a dose of 1.22 mg/kg (2.3 administered.
Test [37] concerns Rattus norvegicus. Briefly: Weight loss of rat over the 6-h experimental period when a dose of 6.11 mg/kg (11.6 administered.
For test [38], the system named is Rattus norvegicus. Briefly: Stool output of rat over the 6-h collection period when a dose of 25 mg/kg (57.6 uM) was given orally. The settings on record: route oral.
Test [39] relates to Rattus norvegicus. Briefly: Percent reduction was determined by using the ratio of mean of treated animal to that of control animal at a dose of 2.5 mg/kg.
For test [40], the system named is Rattus norvegicus. Briefly: Weight loss of rat over the 6-h experimental period when a dose of 12.5 mg/kg (28.9 uM) was given orally. The settings on record: route oral.
The test system of test [41] is Rattus norvegicus. The experiment in a line: Stool output of rat over the 6-h collection period when a dose of 50 mg/kg (115.6 uM) was given orally. The settings on record: route oral.
Test [42] has as its system Rattus norvegicus. The experiment in a line: Percent reduction was determined by using the ratio of mean of treated animal to that of control animal at a dose of 12.5 mg/kg.
In test [43] the test system is Rattus norvegicus. Briefly: Stool output of rat over the 6-h collection period when a dose of 2.5 mg/kg (5.8 administered.
Test [44] deals with Rattus norvegicus. Briefly: Weight loss of rat over the 6-h experimental period when a dose of 25 mg/kg (57.6 uM) was given orally. Particulars: route oral.
Test [45] has as its system Rattus norvegicus. Briefly: Stool output of rat over the 6-h collection period when a dose of 12.5 mg/kg (28.9 uM) was given orally. Particulars: route oral.
Test [46] relates to Rattus norvegicus. Briefly: Weight loss of rat over the 6-h experimental period when a dose of 2.5 mg/kg (5.8 administered.
Test [47] has as its system Rattus norvegicus. The experiment in a line: Percent reduction was determined by using the ratio of mean of treated animal to that of control animal at a dose of 50 mg/kg.
Test [48] deals with Rattus norvegicus. Briefly: Weight loss of rat over the 6-h experimental period when a dose of 1 mg/kg (2.3 administered.
A short description of test [49]: The acute toxicity was determined in female CD1 mice after (ip) administration. The settings on record: Mus musculus.
Test [50] relates to Rattus norvegicus. The experiment in a line: Weight loss of rat over the 6-h experimental period when a dose of 50 mg/kg (115.6 uM) was given orally. The settings on record: route oral.
Test [51] has as its system Rattus norvegicus. The experiment in a line: Weight loss of rat over the 6-h experimental period when a dose of 1.1 mg/kg (2.3 administered.
Test [52] deals with Rattus norvegicus. The experiment in a line: Weight loss of rat over the 6-h experimental period when a dose of 2.7 mg/kg (5.8 administered.
The subject of test [53] is Rattus norvegicus. The experiment in a line: Stool output of rat over the 6-h collection period when a dose of 2.7 mg/kg (5.8 administered.
The subject of test [54] is Rattus norvegicus. The experiment in a line: Stool output of rat over the 6-h collection period when a dose of 1.1 mg/kg (2.3 administered.

“And” between values parts separate entries of the source, which are not always exact repeats. Identical values can stand only once.

These results are taken from ChEMBL document CHEMBL1134446, “Polyamine analogue antidiarrheals: a structure-activity study” (J Med Chem, 2001).

`CCCNCCCNCCCCNCCCNCCC`: the Weight loss in [1] was under 9.1 g; in test [2], under 4 g; in test [5], 13.1 g; in test [6], under 5.7 g. The Stool output in test [3] was 6 g (350g of rat weight)-1; in test [9] it was >3.8 g (350g of rat weight)-1; in test [10], <0 g (350g of rat weight)-1; in test [11], <2.7 g (350g of rat weight)-1. For the same compound, the Reduction in test [4] is 31% and 37%; in test [7], 69% and 100%; in test [8], 56% and 55%.

For the compound `FC(F)(F)CNCCCNCCCCNCCCNCC(F)(F)F`, the Stool output in test [12] is reported as >7.5 g (350g of rat weight)-1; in [14], <0.6 g (350g of rat weight)-1; in [15], 7.2 g (350g of rat weight)-1; in test [3], 7.2 g (350g of rat weight)-1; in [18], <1.9 g (350g of rat weight)-1; in test [19], <0 g (350g of rat weight)-1. Besides, the Weight loss is on record as under 2.8 g in test [13]; under 3.8 g in test [16]; under 6.2 g in test [17]; 18.2 g in test [5]; over 17.2 g in test [20]; 15.1 g in test [21].

On to `c1cc(NCCCCNc2ccncc2)ccn1`, for which the Stool output in test [22] is >6.9 g (350g of rat weight)-1; in [3], 5.6 g (350g of rat weight)-1. Moreover, the values for the Weight loss in [23] and in test [5] were over 14.4 g and 13.3 g, respectively.

Regarding `C(CCNC1CCNCC1)CNC1CCNCC1`, the Stool output is recorded as >4.7 g (350g of rat weight)-1 in test [24] and 4.2 g (350g of rat weight)-1 in [3]. In addition, the Weight loss is over 9.5 g in test [25] and 10 g in test [5].

For `CC(C)CNCCCNCCCCNCCCNCC(C)C`, the Reduction is 78% in test [26] and 39% in [31]. Besides, the Weight loss in test [27] was under 5 g; in test [5], 18.2 g; in [29], under 11.1 g. Further, the Stool output in [3] is reported as 7.2 g (350g of rat weight)-1; in test [28] it was >1.6 g (350g of rat weight)-1; in test [30], >5.1 g (350g of rat weight)-1.

As for `c1ccc(CNCCCNCCCCNCCCNCc2ccccc2)cc1`, the Stool output in test [32] is >5 g (350g of rat weight)-1; in test [3], 6.2 g (350g of rat weight)-1; in test [34], >6.4 g (350g of rat weight)-1; in test [35], >6.3 g (350g of rat weight)-1. Also, the Weight loss is on record as over 10.4 g in test [33], 13.3 g in test [5], over 13.5 g in test [36] and over 13.1 g in [37].

Broadly, the LD50 is the dose expected to kill half of the subjects tested. For the compound `CC(C)NCCCNCCCCNCCCNC(C)C`, the Stool output in test [38] was <0 g (350g of rat weight)-1; in test [41], <0 g (350g of rat weight)-1; in test [15], 7.2 g (350g of rat weight)-1; in test [43], <0 g (350g of rat weight)-1; in test [3], 6.8 g (350g of rat weight)-1; in [45], <3.6 g (350g of rat weight)-1. Besides, the results for the Stool output in [9] and in test [11] were <2.9 g (350g of rat weight)-1 and <0.9 g (350g of rat weight)-1, respectively. Further, the Reduction in test [39] is 64% and 100%; in [42], 49% and 50%; in test [4], 42% and 57%; in test [47], 81% and 100%; in test [7], 79% and 100%; in test [8], 63% and 87%. For the same compound, the Weight loss is recorded as under 8.7 g in [40]; under 3.6 g in [44]; 11.8 g in test [5]; under 4.2 g in test [46]; under 4.4 g in [6]; under 6.9 g in test [48]. Besides, the Weight loss is 17.2 g in test [21] and under 3.2 g in [50]. Also, the median lethal dose (LD50) in test [49] is 125 mg/kg.

Regarding `CCCCNCCCNCCCCNCCCNCCCC`, the Weight loss in [51] is over 10.2 g; in test [52] it was over 11.2 g; in test [5] it was 13.6 g; in test [29], over 12 g. In addition, the Stool output in test [3] was 4.6 g (350g of rat weight)-1; in [53] it was >4.2 g (350g of rat weight)-1; in test [30], >5.5 g (350g of rat weight)-1; in test [54] it was >3.5 g (350g of rat weight)-1.
